Assay results from patent US20060067981A1, “Contact lens with improved biocidal activity and related methods and materials” (Bausch & Lomb Incorporated, priority 2004, published 2006).
Values joined by “and” are separate entries in the source; they are usually repeats but may differ in a detail not shown here. Equal entries are not always repeated.

Legend:
Type in all cases: physicochemical
[1] = Uptake of domaphen bromide by lens in borate buffer system; settings: for Inhibition % in 25 ppm Domiphen Bromide / Inhibition % in 50 ppm Domiphen Bromide / Inhibition % in 100 ppm Domiphen Bromide: Borate buffer, % remaining in solution; for Inhibition % in 25 ppm Domiphen Bromide: 25 ppm (Solution 13); for Inhibition % in 50 ppm Domiphen Bromide: 50 ppm (Solution 14); for Inhibition % in 100 ppm Domiphen Bromide: 100 ppm (Solution 15)
Method: Three solutions made according to the formulation of Example 1 were made with a 25 ppm (Solution 13), 50 ppm (Solution 14) and 100 ppm (Solution 15) domaphen bromide concentrations. Two 3 ml portions of Solutions 13-15 in solution were placed in six separate vials. A total of six Sureview™ lens (Johnson & Johnson, New Brunswick, N.J.) were placed in the vials—one lens per each vial. The vials remained in the lens for a first 24 hour soaking cycle. After 24 hours, the lenses were removed. The amount of domaphen bromide remaining in each of the 3 ml solutions is measured by ultraviolet visible (UV/VIS) spectrometer analytical method. Inhibition % is calculated to reflect the amount of domaphen bromide that remains in the solution expressed as a percentage of the total amount of domaphen bromide. Inhibition % is recorded in Table 6 corresponding to a soaking time of 24 hours. This completed the first test cycle. The lenses removed during the first soaking cycle were placed in six fresh vials containing two 3 ml portions of Solutions 13-15 to commence the second 24 hour soaking cycle. Care was taken to make sure that the solution the lens is soaked in during the second cycle is identical to the solution in the first cycle. Thus, each pair of lenses is soaked in concentrations of Solutions 13-15 identical to the concentration that the lens was soaked in during the first soak cycle. After 24 hours, the lenses are removed. The solutions are tested to determine the concentration domaphen bromide in solution. The inhibition % is calculated and recorded in Table 6 corresponding to 48 hour soak time. The lenses were again soaked for a third and fourth soak cycle. The domaphen bromide inhibition % was recorded after the third and fourth soak cycle and recorded in Table 6 corresponding to the 72 hour and 96 hour soak times, respectively.

[2] = Uptake of domaphen bromide by lens in phosphate buffer system; settings: % remaining in solution; for Inhibition % in 25 ppm Domiphen Bromide: 25 ppm (Solution 7); for Inhibition % in 50 ppm Domiphen Bromide: 50 ppm (Solution 8); for Inhibition % in 100 ppm Domiphen Bromide: 100 ppm (Solution 9)
Method: Three solutions made according to the formulation of Example 1 were made with a 25 ppm (Solution 7), 50 ppm (Solution 8) and 100 ppm (Solution 9) domaphen bromide concentrations, except the borate buffer system was replaced with an equivalent amount of a phosphate buffer system and the amount of water was adjusted accordingly. Two 3 ml portions of Solutions 7-9 in solution were placed in six separate vials. A total of six Sureview™ lens (Johnson & Johnson, New Brunswick, N.J.) were placed in the vials—one lens per each vial. The vials remained in the lens for a first 24 hour soaking cycle. After 24 hours, the lenses were removed. The amount of domaphen bromide remaining in each of the 3 ml solutions is measured by ultraviolet visible (UV/VIS) spectrometer analytical method. Inhibition % is calculated to reflect the amount of domaphen bromide that remains in the solution expressed as a percentage of the total amount of domaphen bromide. Inhibition % is recorded in Table 4 corresponding to a soaking time of 24 hours. This completed the first test cycle. The lenses removed during the first soaking cycle were placed in six fresh vials containing two 3 ml portions of solutions 7-9 to commence the second 24 hour soaking cycle. Care was taken to make sure that the solution the lens is soaked in during the second cycle is identical to the solution in the first cycle. Thus, each pair of lenses is soaked in concentrations of Solutions 7-9 identical to the concentration that the lens was soaked in during the first soak cycle. After 24 hours, the lenses are removed. The solutions are tested to determine the concentration domaphen bromide in solution. The inhibition % is calculated and recorded in Table 4 corresponding to 48 hour soak time. The lenses were again soaked for a third and fourth soak cycle. The domaphen bromide inhibition % was recorded after the third and fourth soak-cycle and recorded in Table 4 corresponding to the 72 hour and 96 hour soak times, respectively.

[3] = Uptake of domaphen bromide by lens in tris(hydroxymethyl)aminomethane buffer system
Method: Three solutions made according to the formulation of Example 1 were made with a 25 ppm (Solution 4), 50 ppm (Solution 5) and 100 ppm (Solution 6) domaphen bromide concentrations, except the borate buffer system was replaced with an equivalent amount of a tris(hydroxymethyl)aminomethane buffer system and the water amount was adjusted accordingly. The term “equivalent amount” means the amount required to adjust the pH to the desired pH as another buffer. Two 3 ml portions of Solutions 4-6 in solution were placed in six separate vials. A total of six Sureview™ lens (Johnson & Johnson, New Brunswick, N.J.) were placed in the vials—one lens per each vial. The vials remained in the lens for a first 24 hour soaking cycle. After 24 hours, the lenses were removed. The amount of domaphen bromide remaining in each of the 3 ml solutions is measured by ultraviolet visible (UV/VIS) spectrometer analytical method. Inhibition % is calculated to reflect the amount of domaphen bromide that remains in the solution expressed as a percentage of the total amount of domaphen bromide. Inhibition % is recorded in Table 3 corresponding to a soaking time of 24 hours. This completed first test cycle. The lenses removed during the first soaking cycle were placed in six fresh vials containing two 3 ml portions of solutions 4-6 to commence the second 24 hour soaking cycle. Care was taken to make sure that the solution the lens is soaked in during the second cycle is identical to the solution in the first cycle. Thus, each pair of lenses is soaked in identical concentrations of Solutions 4-6. After 24 hours, the lenses are removed. The solutions are tested to determine the concentration domaphen bromide in solution. The inhibition % is calculated and recorded in Table 3 corresponding to 48 hour soak time. The lenses were again soaked for a third and fourth soak cycle. The domaphen bromide inhibition % was recorded after the third and fourth soak-cycle and recorded in Table 3 corresponding to the 72 hour and 96 hour soak times, respectively.

[4] = Loading time by soaking commercial contact lenses in 3 ml contact cases; settings: most of buffer system
Method: The loading time for most of buffer system is about 12-24 hours by soaking commercial contact lenses inside the 3 ml contact cases with a certain concentration of domaphen bromide solution.

[5] = Uptake of domaphen bromide by lens in citrate buffer system
Method: Three solutions made according to the formulation of Example 1 were made with a 25 ppm (Solution 10), 50 ppm (Solution 11) and 100 ppm (Solution 12) domaphen bromide concentrations, except the borate buffer system was replaced with an equivalent amount of a citrate buffer system and the water amount was adjusted accordingly. Two 3 ml portions of Solutions 10-12 in solution were placed in six separate vials. A total of six Sureview™ lens (Johnson & Johnson, New Brunswick, N.J.) were placed in the vials—one lens per each vial. The vials remained in the lens for a first 24 hour soaking cycle. After 24 hours, the lenses were removed. The amount of domaphen bromide remaining in each of the 3 ml solutions is measured by ultraviolet visible (UV/VIS) spectrometer analytical method. Inhibition % is calculated to reflect the amount of domaphen bromide that remains in the solution expressed as a percentage of the total amount of domaphen bromide. Inhibition % is recorded in Table 5 corresponding to a soaking time of 24 hours. This completed the first test cycle. The lenses removed during the first soaking cycle were placed in six fresh vials containing two 3 ml portions of solutions 10-12 to commence the second 24 hour soaking cycle. Care was taken to make sure that the solution the lens is soaked in during the second cycle is identical to the solution in the first cycle. Thus, each pair of lenses is soaked in concentrations of Solutions 10-12 identical to the concentration that the lens was soaked in during the first soak cycle. After 24 hours, the lenses are removed. The solutions are tested to determine the concentration domaphen bromide in solution. The inhibition % is calculated and recorded in Table 5 corresponding to 48 hour soak time. The lenses were again soaked for a third and fourth soak cycle. The domaphen bromide inhibition % was recorded after the third and fourth soak cycle and recorded in Table 5 corresponding to the 72 hour and 96 hour soak times, respectively.

CCCCCCCCCCCC[N+](C)(C)CCOc1ccccc1 [Domiphen Bromide]
Inhibition % in 25 ppm Domiphen Bromide ([1]; soaking time 24 hours): 21.85%
Inhibition % in 25 ppm Domiphen Bromide ([1]; soaking time 48 hours): 36.68% and 35.57%
Inhibition % in 25 ppm Domiphen Bromide ([1]; soaking time 72 hours): 33.41% and 33.18%
Inhibition % in 25 ppm Domiphen Bromide ([1]; soaking time 96 hours): 31.54% and 39.03%
Inhibition % in 50 ppm Domiphen Bromide ([1]; soaking time 24 hours): 29.80% and 29.88%
Inhibition % in 50 ppm Domiphen Bromide ([1]; soaking time 48 hours): 36.31% and 32.62%
Inhibition % in 50 ppm Domiphen Bromide ([1]; soaking time 72 hours): 31.35% and 37.25%
Inhibition % in 50 ppm Domiphen Bromide ([1]; soaking time 96 hours): 28.30% and 37.79%
Inhibition % in 100 ppm Domiphen Bromide ([1]; soaking time 24 hours): 14.68% and 17.15%
Inhibition % in 100 ppm Domiphen Bromide ([1]; soaking time 48 hours): 19.08% and 15.10%
Inhibition % in 100 ppm Domiphen Bromide ([1]; soaking time 72 hours): 12.02% and 18.58%
Inhibition % in 100 ppm Domiphen Bromide ([1]; soaking time 96 hours): 14.11% and 20.21%
loading percentage (100% minus Inhibition%) ([1]; borate buffer, as high as): 70-80%
Inhibition % in 25 ppm Domiphen Bromide ([2]; soaking time 24 hours): 43.92% and 51.40%
Inhibition % in 25 ppm Domiphen Bromide ([2]; soaking time 48 hours): 50.19% and 51.75%
Inhibition % in 25 ppm Domiphen Bromide ([2]; soaking time 72 hours): 52.34% and 47.54%
Inhibition % in 25 ppm Domiphen Bromide ([2]; soaking time 96 hours): 41.31% and 34.37%
Inhibition % in 50 ppm Domiphen Bromide ([2]; soaking time 24 hours): 47.12% and 49.78%
Inhibition % in 50 ppm Domiphen Bromide ([2]; soaking time 48 hours): 49.51% and 49.86%
Inhibition % in 50 ppm Domiphen Bromide ([2]; soaking time 72 hours): 46.67% and 48.35%
Inhibition % in 50 ppm Domiphen Bromide ([2]; soaking time 96 hours): 34.47% and 37.30%
Inhibition % in 100 ppm Domiphen Bromide ([2]; soaking time 24 hours): 48.87% and 47.95%
Inhibition % in 100 ppm Domiphen Bromide ([2]; soaking time 48 hours): 46.77% and 47.52%
Inhibition % in 100 ppm Domiphen Bromide ([2]; soaking time 72 hours): 43.55% and 45.54%
Inhibition % in 100 ppm Domiphen Bromide ([2]; soaking time 96 hours): 34.67% and 37.15%
Domiphen bromide remaining in solution (% of total) ([3]; 25 ppm (Solution 4), soaking time 24 hours): 78.59% and 75.76%
Domiphen bromide remaining in solution (% of total) ([3]; 25 ppm (Solution 4), soaking time 48 hours): 57.91% and 62.72%
Domiphen bromide remaining in solution (% of total) ([3]; 25 ppm (Solution 4), soaking time 72 hours): 59.19% and 53.50%
Domiphen bromide remaining in solution (% of total) ([3]; 25 ppm (Solution 4), soaking time 96 hours): 55.13% and 52.65%
Domiphen bromide remaining in solution (% of total) ([3]; 50 ppm (Solution 5), soaking time 24 hours): 73.59% and 67.65%
Domiphen bromide remaining in solution (% of total) ([3]; 50 ppm (Solution 5), soaking time 48 hours): 68.18% and 66.35%
Domiphen bromide remaining in solution (% of total) ([3]; 50 ppm (Solution 5), soaking time 72 hours): 58.25% and 56.17%
Domiphen bromide remaining in solution (% of total) ([3]; 50 ppm (Solution 5), soaking time 96 hours): 80.84% and 81.31%
Domiphen bromide remaining in solution (% of total) ([3]; 100 ppm (Solution 6), soaking time 24 hours): 68.39% and 63.58%
Domiphen bromide remaining in solution (% of total) ([3]; 100 ppm (Solution 6), soaking time 48 hours): 65.50% and 63.71%
Domiphen bromide remaining in solution (% of total) ([3]; 100 ppm (Solution 6), soaking time 72 hours): 56.54% and 58.19%
Domiphen bromide remaining in solution (% of total) ([3]; 100 ppm (Solution 6), soaking time 96 hours): 53.91% and 59.25%
loading time [4]: 12 to 24 h
Domiphen bromide remaining in solution (%) ([5]; 25 ppm (Solution 10), soaking time 24 hours): 63.20% and 75.66%
Domiphen bromide remaining in solution (%) ([5]; 25 ppm (Solution 10), soaking time 48 hours): 71.57% and 73.25%
Domiphen bromide remaining in solution (%) ([5]; 25 ppm (Solution 10), soaking time 72 hours): 64.34% and 76.59%
Domiphen bromide remaining in solution (%) ([5]; 25 ppm (Solution 10), soaking time 96 hours): 59.17% and 64.89%
Domiphen bromide remaining in solution (%) ([5]; 50 ppm (Solution 11), soaking time 24 hours): 76.51% and 80.02%
Domiphen bromide remaining in solution (%) ([5]; 50 ppm (Solution 11), soaking time 48 hours): 78.39% and 72.39%
Domiphen bromide remaining in solution (%) ([5]; 50 ppm (Solution 11), soaking time 72 hours): 67.91% and 77.42%
Domiphen bromide remaining in solution (%) ([5]; 50 ppm (Solution 11), soaking time 96 hours): 59.28% and 69.87%
Domiphen bromide remaining in solution (%) ([5]; 100 ppm (Solution 12), soaking time 24 hours): 75.59% and 77.95%
Domiphen bromide remaining in solution (%) ([5]; 100 ppm (Solution 12), soaking time 48 hours): 79.63% and 70.90%
Domiphen bromide remaining in solution (%) ([5]; 100 ppm (Solution 12), soaking time 72 hours): 71.04% and 81.39%
Domiphen bromide remaining in solution (%) ([5]; 100 ppm (Solution 12), soaking time 96 hours): 62.97% and 74.47%
